In patent US10632132B2, “Methods for treating heart transplant rejection” (priority 2018, dated 2020):

How the values were obtained:
[1] = test system: fully mismatched heterotopic heart allograft; experiment: Fully mismatched heterotopic heart allograft survival in rats; assay type: in vivo, rat (Lewis 1W donor, Lewis 1A receptor); conditions: rat; SANA 100 mg/kg or 50 mg/kg by oral gavage daily from day −1 to day 15 post-transplantation; compared with control (vehicle) and precursor drug SA 100 mg/kg; FIG. 3
Method: (§1) While not wishing to be bound by theory, NLRP3 inflammasome activation is a mechanism that mediates the rejection of allotransplantation and in one embodiment of the described invention, it is a possible therapeutic target to treat allotransplantation of a heart. […] C57BL/6 mice were treated with SANA or salicylic acid (SA) (100 mg/kg, IP) or the vehicle (DMSO) for 1 hour. Then were injected with LPS (10 mg/kg, IP) or PBS for 2 hours, with subsequent peritoneal washes and blood extractions. Peritoneal wash and plasma were stored to measure IL-1β by ELISA. […] Rats were administrated with SANA or SA (100 mg/kg), SANA (50 mg/kg) or vehicle (Phosphate buffer) by oral gavage every day since day −1 until day 15 post-transplantation. Heart heterotopic transplantation was done by implantation of the donor heart (Lewis 1W rat) into the receptor abdomen (Lewis 1A rat). Rejection was diagnosed when the heart lost functionality (beats has stopped).

[2] = test system: NF-κB and NLRP3 inflammasome-dependent IL-1β release; experiment: LPS-induced IL-1β release in mice, measured by ELISA in plasma and peritoneal wash; assay type: in vivo; conditions: C57BL/6 mice, 100 mg/kg IP for 1 hour, then LPS 10 mg/kg IP for 2 hours
Method: as §1

O=C(O)c1cc(/C=C/[N+](=O)[O-])ccc1O [SANA, 2-hydroxy-5-(2-nitroethenyl)benzoic acid]
heart graft survival (rejection = heart beats stopped) [1]: prolonged the heart grafted survival | effect on NF-κB and NLRP3 inflammasome-dependent IL-1β release in the peritoneum ([2]; peritoneal wash, FIG. 2): inhibitory effect | effect on NF-κB and NLRP3 inflammasome-dependent IL-1β release in the plasma ([2]; plasma, FIG. 1): inhibitory effect
